#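 How tested: cells in 96-well plates exposed to compound for 48 hours at five concentrations. TGI marks complete inhibition of growth.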
# Columns and labels:
# Experiment in all cases: NCI-60 cell line screen, 48 h
# NCI-H460 lung = system: NCI-H460 lung
# SF-295 CNS = system: SF-295 CNS
# A498 renal = system: A498 renal
# HCT-15 colon = system: HCT-15 colon
# MDA-MB-231 breast = system: MDA-MB-231 breast
# SR leukemia = system: SR leukemia
# NCI/ADR-RES ovarian = system: NCI/ADR-RES ovarian
# IGROV1 ovarian = system: IGROV1 ovarian
# MDA-N = system: MDA-N
# HS 578T breast = system: HS 578T breast
# M14 melanoma = system: M14 melanoma
# NCI-H23 lung = system: NCI-H23 lung
# COLO 205 colon = system: COLO 205 colon
# SF-268 CNS = system: SF-268 CNS
# SK-MEL-28 melanoma = system: SK-MEL-28 melanoma
# T-47D breast = system: T-47D breast
# UACC-62 melanoma = system: UACC-62 melanoma
# HOP-92 NSCLC = system: HOP-92 NSCLC
# LOX IMVI melanoma = system: LOX IMVI melanoma
# SF-539 CNS = system: SF-539 CNS
# PC-3 prostate = system: PC-3 prostate
# HT29 colon = system: HT29 colon
# HCC-2998 colon = system: HCC-2998 colon
# OVCAR-5 ovarian = system: OVCAR-5 ovarian
# DU-145 prostate = system: DU-145 prostate
# SNB-75 CNS = system: SNB-75 CNS
# HL-60(TB) leukemia = system: HL-60(TB) leukemia
# SNB-19 CNS = system: SNB-19 CNS
# RXF 393 renal = system: RXF 393 renal
# HOP-62 NSCLC = system: HOP-62 NSCLC
# SW-620 colon = system: SW-620 colon
# MALME-3M melanoma = system: MALME-3M melanoma
# EKVX NSCLC = system: EKVX NSCLC
# UACC-257 melanoma = system: UACC-257 melanoma
# 786-0 renal = system: 786-0 renal
# K-562 leukemia = system: K-562 leukemia
# CCRF-CEM leukemia = system: CCRF-CEM leukemia
# A549 NSCLC = system: A549 NSCLC
# MCF7 breast = system: MCF7 breast
# SN12C renal = system: SN12C renal
# MDA-MB-435 = system: MDA-MB-435
# ACHN renal = system: ACHN renal
# BT-549 breast = system: BT-549 breast
# KM12 colon = system: KM12 colon
# MOLT-4 leukemia = system: MOLT-4 leukemia
# TK-10 renal = system: TK-10 renal
# SK-MEL-2 melanoma = system: SK-MEL-2 melanoma
# HCT-116 colon = system: HCT-116 colon
# SK-OV-3 ovarian = system: SK-OV-3 ovarian
# NCI-H226 lung = system: NCI-H226 lung
# U251 CNS = system: U251 CNS
# UO-31 renal = system: UO-31 renal
# OVCAR-4 ovarian = system: OVCAR-4 ovarian
# CAKI-1 renal = system: CAKI-1 renal
# RPMI-8226 leukemia = system: RPMI-8226 leukemia
# NCI-H522 lung = system: NCI-H522 lung
# OVCAR-3 ovarian = system: OVCAR-3 ovarian
# SK-MEL-5 melanoma = system: SK-MEL-5 melanoma
# OVCAR-8 ovarian = system: OVCAR-8 ovarian
# KM20L2 colon = system: KM20L2 colon
# DLD-1 colon = system: DLD-1 colon
# HOP-18 NSCLC = system: HOP-18 NSCLC
# M19-MEL melanoma = system: M19-MEL melanoma
# SNB-78 CNS = system: SNB-78 CNS
# LXFL 529 NSCLC = system: LXFL 529 NSCLC
# DMS 273 small cell lung = system: DMS 273 small cell lung
smiles,measurement,setting,value
COc1ccc2oc(=O)c(-c3nc4ccccc4o3)cc2c1,TGI,NCI-H460 lung,> 100 µM
same,TGI,SF-295 CNS,> 100 µM
same,TGI,A498 renal,> 100 µM
same,TGI,HCT-15 colon,> 100 µM
same,TGI,MDA-MB-231 breast,> 100 µM
same,TGI,SR leukemia,49.7 µM
same,TGI,NCI/ADR-RES ovarian,> 100 µM
same,TGI,IGROV1 ovarian,> 100 µM
same,TGI,MDA-N,> 100 µM
same,TGI,HS 578T breast,> 100 µM
same,TGI,M14 melanoma,> 100 µM
same,TGI,NCI-H23 lung,> 100 µM
same,TGI,COLO 205 colon,> 100 µM
same,TGI,SF-268 CNS,> 100 µM
same,TGI,SK-MEL-28 melanoma,> 100 µM
same,TGI,T-47D breast,> 100 µM
same,TGI,UACC-62 melanoma,> 100 µM
same,TGI,HOP-92 NSCLC,> 100 µM
same,TGI,LOX IMVI melanoma,> 100 µM
same,TGI,SF-539 CNS,> 100 µM
same,TGI,PC-3 prostate,> 100 µM
same,TGI,HT29 colon,> 100 µM
same,TGI,HCC-2998 colon,> 100 µM
same,TGI,OVCAR-5 ovarian,> 100 µM
same,TGI,DU-145 prostate,> 100 µM
same,TGI,SNB-75 CNS,> 100 µM
same,TGI,HL-60(TB) leukemia,> 100 µM
same,TGI,SNB-19 CNS,> 100 µM
same,TGI,RXF 393 renal,> 100 µM
same,TGI,HOP-62 NSCLC,> 100 µM
same,TGI,SW-620 colon,> 100 µM
same,TGI,MALME-3M melanoma,> 100 µM
same,TGI,EKVX NSCLC,> 100 µM
same,TGI,UACC-257 melanoma,> 100 µM
same,TGI,786-0 renal,> 100 µM
same,TGI,K-562 leukemia,> 100 µM
same,TGI,CCRF-CEM leukemia,> 100 µM
same,TGI,A549 NSCLC,> 100 µM
same,TGI,MCF7 breast,> 100 µM
same,TGI,SN12C renal,> 100 µM
same,TGI,MDA-MB-435,> 100 µM
same,TGI,ACHN renal,> 100 µM
same,TGI,BT-549 breast,> 100 µM
same,TGI,KM12 colon,> 100 µM
same,TGI,MOLT-4 leukemia,> 100 µM
same,TGI,TK-10 renal,> 100 µM
same,TGI,SK-MEL-2 melanoma,> 100 µM
same,TGI,HCT-116 colon,> 100 µM
same,TGI,SK-OV-3 ovarian,> 100 µM
same,TGI,NCI-H226 lung,> 100 µM
same,TGI,U251 CNS,> 100 µM
same,TGI,UO-31 renal,> 100 µM
same,TGI,OVCAR-4 ovarian,> 100 µM
same,TGI,CAKI-1 renal,> 100 µM
same,TGI,RPMI-8226 leukemia,> 100 µM
same,TGI,NCI-H522 lung,> 100 µM
same,TGI,OVCAR-3 ovarian,> 100 µM
same,TGI,SK-MEL-5 melanoma,> 100 µM
same,TGI,OVCAR-8 ovarian,> 100 µM
COc1ccc(NC(=O)CC(=O)N2N=C(N(CCC#N)c3cccc(C)c3)CC2c2ccccc2)cc1 (configuration not stated),TGI,NCI-H460 lung,> 100 µM
same,TGI,SF-295 CNS,> 100 µM
same,TGI,HCT-15 colon,> 100 µM
same,TGI,SR leukemia,> 100 µM
same,TGI,KM20L2 colon,> 100 µM
same,TGI,IGROV1 ovarian,> 100 µM
same,TGI,M14 melanoma,> 100 µM
same,TGI,NCI-H23 lung,> 100 µM
same,TGI,DLD-1 colon,> 100 µM
same,TGI,COLO 205 colon,> 100 µM
same,TGI,HOP-18 NSCLC,> 100 µM
same,TGI,SF-268 CNS,> 100 µM
same,TGI,SK-MEL-28 melanoma,> 100 µM
same,TGI,UACC-62 melanoma,> 100 µM
same,TGI,HOP-92 NSCLC,> 100 µM
same,TGI,SF-539 CNS,> 100 µM
same,TGI,HT29 colon,> 100 µM
same,TGI,HCC-2998 colon,> 100 µM
same,TGI,OVCAR-5 ovarian,> 100 µM
same,TGI,SNB-75 CNS,> 100 µM
same,TGI,HL-60(TB) leukemia,> 100 µM
same,TGI,SNB-19 CNS,> 100 µM
same,TGI,M19-MEL melanoma,> 100 µM
same,TGI,RXF 393 renal,> 100 µM
same,TGI,HOP-62 NSCLC,> 100 µM
same,TGI,SW-620 colon,> 100 µM
same,TGI,MALME-3M melanoma,> 100 µM
same,TGI,EKVX NSCLC,> 100 µM
same,TGI,UACC-257 melanoma,> 100 µM
same,TGI,786-0 renal,> 100 µM
same,TGI,K-562 leukemia,> 100 µM
same,TGI,SNB-78 CNS,> 100 µM
same,TGI,CCRF-CEM leukemia,> 100 µM
same,TGI,A549 NSCLC,> 100 µM
same,TGI,SN12C renal,> 100 µM
same,TGI,ACHN renal,> 100 µM
same,TGI,LXFL 529 NSCLC,> 100 µM
same,TGI,DMS 273 small cell lung,> 100 µM
same,TGI,KM12 colon,> 100 µM
same,TGI,MOLT-4 leukemia,> 100 µM
same,TGI,SK-MEL-2 melanoma,> 100 µM
same,TGI,HCT-116 colon,> 100 µM
same,TGI,SK-OV-3 ovarian,> 100 µM
same,TGI,NCI-H226 lung,> 100 µM
same,TGI,U251 CNS,> 100 µM
same,TGI,UO-31 renal,> 100 µM
same,TGI,OVCAR-4 ovarian,> 100 µM
same,TGI,CAKI-1 renal,> 100 µM
same,TGI,RPMI-8226 leukemia,> 100 µM
same,TGI,NCI-H522 lung,> 100 µM
same,TGI,OVCAR-3 ovarian,> 100 µM
same,TGI,SK-MEL-5 melanoma,> 100 µM
same,TGI,OVCAR-8 ovarian,> 100 µM

# Reference: PubChem BioAssay (NCI)
